The values that follow come from article PMC8069016, “Matrix Effects of the Hydroethanolic Extract of Calyces of Physalis peruviana L. on Rutin Pharmacokinetics in Wistar Rats Using Population Modeling” (Pharmaceutics, 2021).

In general, AUC(0-inf) refers to the area under the concentration-time curve extrapolated to infinity. For orientation: MRT means the average time that molecules of a dose stay in the body. The half-life is how long it takes for the measured level to halve. The low end stands for fast loss, the high end for slow loss.

Data set [1] in a line: Stability in plasma (bioanalytical method validation). It is filed as in vitro ADME, rats. Particulars: Wistar, rat; plasma at acidic pH; 2 h at 4 °C, 30 d at −80 °C, and 3 freeze/thaw cycles. The procedure:
Rutin and quercetin quantification was carried out by UHPLC-UV using a Chromaster RS chromatograph (Hitachi, Tokyo, Japan) and a Kinetex® EVO C18 column (2.6 µm, 100 × 2.1 mm; Phenomenex, Torrance, CA, USA) with an oven setting at 30 °C and a UV detector at 260 nm. The mobile phase consisted of 0.1% formic acid in water (A) and in acetonitrile (B), flowing at 0.5 mL/min in a gradient from 75% A to 65% A up to 9.3 min and 5 min of re-equilibration. The method was validated according to FDA guidelines. The UHPLC-UV method used for rutin and quercetin quantification in the blood plasma samples was selective and specific for these analytes and for the IS (Figure S2) and met all the criteria of the FDA guidelines. Linearity was described for the equations y = 0.00042x + 0.00910 (r^2 0.9996) and y = 0.00056 − 0.00767 (r^2 0.99980) for rutin and quercetin, respectively, at the concentration range from 100 to 10,000 ng/mL with a 1/x^2 weighting factor. Accuracy and precision were ≥85.6% (as recovery) and ≤7.2% (as variation coefficient), respectively, for both analytes, and these parameters were not affected by dilutions of over-concentrated samples up to 20 times the upper limit of quantification (recovery ≥ 86.3%).

The nature of data set [2]: Pharmacokinetics of quercetin (deconjugated Q3OG and Q3OS) after oral administration, non-compartmental analysis. It counts as in vivo, Wistar rats. To be noted: p.o.; only quercetin after deconjugation of Q3OG and Q3OS was measurable. How it is done:
(§1) The PK studies of rutin, both pure and from the extract of calyces of P. peruviana, were carried out using 50 male Wistar rats (7–11 weeks old and 250–300 g) obtained from the animal facility of the Department of Pharmacy of the Universidad Nacional de Colombia. The animals were kept under constant temperature conditions (22 ± 1 °C), with light/dark cycles of 12 h. They were provided with water and food ad libitum and fasted for 12 h before the assays. This protocol was approved by the ethics committee of the science faculty (Act 06, 2015, project 40831, 22 June 2015).
For intravenous (i.v.) administration, the extract was prepared in sodium chloride solution (0.9% NaCl), vortexed, and sonicated 3–4 times for 15 min. Rutin was first dissolved in DMSO and then diluted in 0.9% NaCl. The clear solutions were administrated via the lateral tail vein of the rats. […] Rutin doses below 1.45 (i.v.) or 75 (p.o.) mg/kg could not show enough quantifiable analytical signals in blood plasma. […]
Blood plasma aliquots (50 µL) were added to a chrysin standard solution (internal standard (IS)) at a final concentration of 1000 ng/mL. […] Another 50 µL of blood plasma aliquots with the IS were treated with β-glucuronidase/arylsulfatase (120 Fishman units) in order to indirectly quantify the Q3OG and quercetin-3-O-sulfate (Q3OS) present in these samples by conversion into the parent quercetin (deconjugation). […]

Data set [3] is described as follows: Population pharmacokinetic modeling of rutin, intravenous administration. It is filed as in vivo, Wistar rats. Particulars: rutin i.v.; for k12 pop / k21 pop / k pop / V_pop: Table S1. The procedure: Population pharmacokinetic (PopPK) modeling for rutin and quercetin (produced by deconjugation of Q3OG and Q3OS) was performed using the software program Monolix 2019R1 (Lixoft®, Paris, France). One- and two-compartment structural models with first-order elimination were evaluated, and double first-order absorption was included for the oral dosing experiments. Analyses of the categorical covariates (pure rutin, extract, and doses) were performed, and those that were significant were added to the model (p < 0.05 for Pearson’s and Wald tests with stochastic approximation). Correlations between random effects of the parameters were also tested and added to the model, where appropriate (p < 0.05 for t-test). The final model, including the model of the residual error, was selected based on the observation of individual fit plots, Akaike’s information criteria (AIC) values, visual assessment of the observation-versus-prediction plot, the precision of the estimated parameters, and evaluation of the distribution of residuals. The model was internally validated by a visual predictive check (VPC) with 1000 simulated data.
The general model equation for the PK parameters was (2) Pi=Ppop+βcovariate n+ηi,p, where Pi is the individual parameter, Ppop is the population parameter, β is a parameter representing the variability due to the significant covariate n, and η(i,p) is the individual deviation from Ppop. According to the probability distribution of individual parameters, P in the equation could be expressed as logP or logitP (logP/((1 − P)).
Rutin (i.v.) from both sources was better fitted to a two-compartment model described by the following parameters: volume of the central compartment (V), k, and the distribution rate constants k12 and k21 (Figure 3a). The […] differential equations representing this model are expressed in Equations (3) and (4), where X1 and X2 are the amounts of the drug in the central and peripheral compartments, respectively. (3) dX1/dt=k21X2−k12+kX1 (4) dX2/dt=k12X1−k21X2
The population parameters in Table 4 correspond to those of pure rutin (for the dosage set) that was used as a reference in the analysis of covariates. A similarity was noted between the values for Vpop (0.0646 L/kg) and Vdz of pure rutin from the NCA, especially at 2.9 mg/kg (0.068 L/kg). The Clpop parameter, estimated from Vpop and kpop, was equivalent to the Cl of pure rutin from the NCA (in both cases 0.095 L/h/kg for the set of doses). […] Equations (5)–(8) describe the model of covariates, where η is the individual deviation from Ppop. (5) log(V/1−V)=log(Vpop/1−Vpop)+βVGEXT+ηV (6) logk=logkpop+βkGEXT+ηk (7) logk12=logk12pop (8) logk21=logk21pop

Data set [4] can be described thus: Pharmacokinetics of rutin after intravenous administration, non-compartmental analysis. It counts as in vivo, Wistar rats. Particulars: for AUC(0-inf) / MRT / half-life / clearance / Vd: male, Wistar, rat, iv; for Vd: read-out: Vdss. The procedure: as §1
For intravenous (i.v.) administration, the extract was prepared in sodium chloride solution (0.9% NaCl), vortexed, and sonicated 3–4 times for 15 min. Rutin was first dissolved in DMSO and then diluted in 0.9% NaCl. The clear solutions were administrated via the lateral tail vein of the rats. For the oral route (p.o.) experiments, the extract and rutin were suspended in water close to the time for oral gavage dosing. […] Rutin doses below 1.45 (i.v.) or 75 (p.o.) mg/kg could not show enough quantifiable analytical signals in blood plasma. For the extract, the doses were close to the active ones, according to previous studies by our group.
Samples of the animals’ blood (approximately 250 µL) were taken by puncture in the lateral tail vein and collected in heparinized tubes at times 0, 0.05, 0.166, 0.333, 0.5, 0.75, 1, 1.5, 2, 3, 4, 6, 8, and 12 h for the i.v. experiments and at times 0, 0.083, 0.25, […], 0.75, 1, 2, 3, 4, 6, 8, 10, 12, and 24 h for the p.o. experiments.
Blood plasma aliquots (50 µL) were added to a chrysin standard solution (internal standard (IS)) at a final concentration of 1000 ng/mL. Proteins were precipitated with methanol (1:2 v:v), and clear supernatants were obtained by centrifugation at 1200× g and at 4 °C for 15 min; 6 µL of each aliquot was used for instrumental analyses. Another 50 µL of blood plasma aliquots with the IS were treated with β-glucuronidase/arylsulfatase (120 Fishman units) in order to indirectly quantify the Q3OG and quercetin-3-O-sulfate (Q3OS) present in these samples by conversion into the parent quercetin (deconjugation). The deconjugation reaction was promoted by incubating the samples with the enzymes at pH 5.5 and 37 °C for 30 min. Reactions with the Q3OG standard (10,000 ng/mL) and blank blood plasma were included in each analysis set as positive and negative controls, respectively. After the reaction, proteins were precipitated, as indicated above.
Rutin and quercetin quantification was carried out by UHPLC-UV using a Chromaster RS chromatograph (Hitachi, Tokyo, Japan) and a Kinetex® EVO C18 column (2.6 µm, 100 × 2.1 mm; Phenomenex, Torrance, CA, USA) with an oven setting at 30 °C and a UV detector at 260 nm. The mobile phase consisted of 0.1% formic acid in water (A) and in acetonitrile (B), flowing at 0.5 mL/min in a gradient from 75% A to 65% A up to 9.3 min and 5 min of re-equilibration. The method was validated according to FDA guidelines.
The PK parameters of rutin and quercetin (produced by deconjugation of Q3OG and Q3OS) were first determined by non-compartmental analysis (NCA) using the software program Pkanalix 2019R1 (Lixoft®, Paris, France), set to linear trapezoidal integral mode. The area under the curve to infinity (AUC0-INF), clearance (Cl), volume of distribution at the steady state (Vdss), volume of distribution associated with the terminal phase (Vdz), first-order rate constant of elimination (k), terminal half-life (t1/2), mean residence time (MRT), maximum observed concentration (Cmax), and time of maximum observed concentration (tmax) were determined for the analytes detected for each intervention.

On the set-up of data set [5]: method as in doi:10.1016/j.tifs.2017.07.008, PMID 32162346, PMID 30614249. Particulars: low solubility and low permeability; cited from earlier work.
[6] abbreviates: run Pure rutin and extract model: final model.
Where [7] appears, read: run Pure rutin and extract model: model of covariate 1.
Setting [8] is: run Pure rutin: one compartment model, first order elimination.
The mark [9] stands for this setting: run Pure rutin: selection of model error and final model.
Setting [10] is: run Pure rutin: two-compartment model, first order elimination.
Setting [11] is: two-compartment popPK model, pure rutin (dosage set) as reference.
The mark [12] stands for this setting: rutin in plasma, pure rutin i.v. 1.45 mg/kg.
The mark [13] stands for this setting: rutin in plasma, pure rutin i.v. 2.9 mg/kg.

Where two headings read alike, the source gives them in different places.

Turning to `O=c1c(O)c(-c2ccc(O)c(O)c2)oc2cc(O)cc(O)c12` [quercetin], the recovery in data set [1] was at least 87.8%.

Turning to `C[C@@H]1O[C@@H](OC[C@H]2O[C@@H](Oc3c(-c4ccc(O)c(O)c4)oc4cc(O)cc(O)c4c3=O)[C@H](O)[C@@H](O)[C@@H]2O)[C@H](O)[C@H](O)[C@H]1O` [Rutin, quercetin-3-O-rutinoside], in data set [2], the “plasma concentrations of rutin or free quercetin after oral administration” value is recorded as “did not allow measurable plasma concentrations of rutin or free quercetin”. In data set [3] (setting [6]), this compound came in with a k12 pop of 2.6 h⁻¹, a k21 pop of 13.6 h⁻¹ and a k pop of 1.47 h⁻¹. Besides, in data set [3] (setting [7]), the V_pop was 5.9 e-5, the k12 pop worked out at 2.62 h⁻¹, the k21 pop worked out at 9.67 h⁻¹ and the k pop turned out to be 1.58 h⁻¹. Further, in data set [3] (setting [8]), the V_pop was 7.81 e−5 and the k pop turned out to be 1.22 h⁻¹. In data set [3] (setting [9]), this compound returned a V_pop of 6.4e -5, a k12 pop of 2.5 h⁻¹, a k21 pop of 16.8 h⁻¹ and a k pop of 1.48 h⁻¹. Moreover, in data set [3] (setting [10]), the V_pop is on record as 5.89e -5, the k12 pop is 5.24 h⁻¹, the k21 pop came out at 19.4 h⁻¹ and the k pop was determined as 1.61 h⁻¹. In addition, in data set [3] (estimated from Vpop and kpop, set of doses), the Clpop was 1.58 mL/min/kg. In data set [3] (setting [11]), the “Vpop (volume of the central compartment)” value came to 0.0646 L/kg, the k12_pop stood at 2.6 h⁻¹, the k21_pop is 13.6 h⁻¹ and the “kpop (first-order rate constant of elimination)” value came out at 1.47 h⁻¹. Further, in data set [4] (setting [12]), the area under the curve AUC(0-inf) amounted to 14900 ng·h/mL, the MRT stood at 64.8 ± 10.6 min, the half-life was 39.6 ± 7.8 min and the Vd was 0.11 ± 0.0306 L/kg. For the same compound, in data set [4] (setting [12]), the “AUC/dose × 10^−3” value was 10,243.52 ± 1743.478 h/L, the Vdz is listed as 0.096 ± 0.027 L/kg and the k came out at 1.08 ± 0.195 h⁻¹. For the same compound, in data set [4] (rutin in plasma, pure rutin i.v. 1.45 mg/kg, read-out: Cl (converted)), the clearance is 1.67 mL/min/kg. In data set [4] (setting [13]), the AUC(0-inf) is 33900 ng·h/mL, the mean residence time MRT was found to be 48.6 ± 3.18 min, the half-life was 32.4 ± 3.72 min and the Vd was found to be 0.07 ± 0.009 L/kg. Besides, in data set [4] (setting [13]), the “AUC/dose × 10^−3” value is 11,701.24 ± 992.522 h/L and the k was found to be 1.29 ± 0.159 h⁻¹. Moreover, the clearance in data set [4] (rutin in plasma, pure rutin i.v. 2.9 mg/kg, read-out: Cl (converted)) is 1.5 mL/min/kg. The clearance in data set [4] (plasma, rutin i.v., pure rutin, set of doses, read-out: Cl from the NCA (converted)) is 1.58 mL/min/kg. For the same compound, the Vdz in data set [4] (rutin in plasma, pure rutin i.v. 2.9 mg/kg, 2.9 mg/kg) stood at 0.068 ± 0.012 L/kg. The compound further displayed a Vdz in data set [4] (rutin in plasma, pure rutin i.v. 2.9 mg/kg, listed as pure rutin, 2.9 mg/kg) of 0.068 L/kg. In data set [5], the “biopharmaceutical classification system class” value was “class IV”.
